Measurements published in US6518268B1, “Telomerase inhibitors and methods of their use” (Geron Corporation, priority 1999, dated 2003).
Values belong to the molecule of their own block, whether it stands above or below them.

Experiments:
[1] = molecular target: T1, partially purified telomerase from a nuclear extract of HEK293 cells (Homo sapiens, UniProt O14746); assay: In vitro telomerase inhibition, membrane hybridization method (U.S. Pat. No. 5,760,062); type: biochemical; conditions: for IC50: partially purified telomerase from nuclear extract of HEK293 cells; for residual activity of in vitro telomerase activity (in parenthesis): in the presence of the compound at a concentration of 10 μm
T1 construct: partially purified telomerase from a nuclear extract of HEK293 cells; endogenous in cells; host or cells: HEK293 cells, nuclear extract, partially purified
Experimental: Alternatively, telomerase inhibitory activity of the compounds was measured in accordance with a known method (U.S. Pat. No. 5,760,062). That is, a dimethyl sulfoxide (DMSO) solution of each agent was mixed with partially purified telomerase from a nuclear extract of HEK293 cells and incubated in the presence of an oligodeoxynucleotide to be used as the substrate and deoxynucleotide triphosphate. The obtained reacted product (DNA having a telomere sequence) was adsorbed on a membrane, and hybridization was carried out using a labeled oligonucleotide probe having a sequence complementary to the telomere sequence. The inhibition ratio was calculated based on the ratio of the signal of label on the membrane in the presence of the agent to the signal of label in the absence of the agent (control). Also, concentration of each agent which inhibits 50% of the enzyme activity based on the control was used as IC50.

[2] = molecular target: T2, telomerase in human renal carcinoma cell line ACHN (Homo sapiens, UniProt O14746); assay: Telomerase activity in extract of agent-treated ACHN cells (TRAP assay); type: cell-based; conditions: contact 3 days
T2 construct: human renal carcinoma cell line ACHN for 3 days, and then a cell extract was prepared; endogenous in cells; host or cells: ACHN human renal carcinoma cells; CHAPS extract after 3 days of treatment
Experimental: That is, a cell extract was prepared using a buffer solution containing 0.5% CHAPS. Using the extract, TRAP (Telomeric Repeat Amplification Protocol) assay was carried out in vitro (TRAPEZE™ ELISA Telomerase Detection Kit, manufactured by Intergen). The ratio (%) of the enzyme activity in the extract from agent-treated cells to the enzyme activity in the extract from agent-untreated cells was calculated.

[3] = concentration 10 μM, read-out: Residual Enzyme Activity (%)
[4] = concentration 30 μM, read-out: Residual Enzyme Activity (%)

T1 sequence (O14746 whole entry): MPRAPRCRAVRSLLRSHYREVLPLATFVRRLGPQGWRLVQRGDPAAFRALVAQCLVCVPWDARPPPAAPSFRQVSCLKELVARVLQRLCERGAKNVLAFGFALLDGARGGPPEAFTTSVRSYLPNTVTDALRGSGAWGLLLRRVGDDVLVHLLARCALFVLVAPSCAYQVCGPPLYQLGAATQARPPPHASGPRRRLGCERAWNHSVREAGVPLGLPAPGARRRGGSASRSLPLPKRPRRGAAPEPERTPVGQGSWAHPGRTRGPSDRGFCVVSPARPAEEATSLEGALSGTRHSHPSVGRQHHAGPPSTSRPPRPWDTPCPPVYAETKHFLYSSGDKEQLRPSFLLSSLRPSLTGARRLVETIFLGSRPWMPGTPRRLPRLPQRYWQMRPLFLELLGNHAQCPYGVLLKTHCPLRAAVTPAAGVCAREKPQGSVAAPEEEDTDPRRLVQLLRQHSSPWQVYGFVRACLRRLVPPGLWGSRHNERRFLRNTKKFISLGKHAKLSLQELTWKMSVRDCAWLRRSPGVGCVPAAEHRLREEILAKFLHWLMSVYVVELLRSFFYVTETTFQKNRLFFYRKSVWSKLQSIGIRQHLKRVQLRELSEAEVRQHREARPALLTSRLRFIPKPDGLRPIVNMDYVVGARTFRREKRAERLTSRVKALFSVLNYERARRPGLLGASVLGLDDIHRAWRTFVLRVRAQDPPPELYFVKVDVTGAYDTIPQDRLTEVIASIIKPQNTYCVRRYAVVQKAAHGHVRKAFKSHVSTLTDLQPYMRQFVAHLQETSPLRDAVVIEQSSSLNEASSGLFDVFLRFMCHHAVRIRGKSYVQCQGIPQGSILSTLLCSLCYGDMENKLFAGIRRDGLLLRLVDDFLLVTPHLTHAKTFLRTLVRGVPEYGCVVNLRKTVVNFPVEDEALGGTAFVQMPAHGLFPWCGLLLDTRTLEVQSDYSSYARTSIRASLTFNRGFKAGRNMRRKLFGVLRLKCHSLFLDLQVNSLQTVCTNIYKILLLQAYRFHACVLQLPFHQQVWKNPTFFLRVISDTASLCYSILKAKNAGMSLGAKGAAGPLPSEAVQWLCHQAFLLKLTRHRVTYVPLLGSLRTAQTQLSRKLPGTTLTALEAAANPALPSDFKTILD
T1 sequence (O60832 whole entry partner): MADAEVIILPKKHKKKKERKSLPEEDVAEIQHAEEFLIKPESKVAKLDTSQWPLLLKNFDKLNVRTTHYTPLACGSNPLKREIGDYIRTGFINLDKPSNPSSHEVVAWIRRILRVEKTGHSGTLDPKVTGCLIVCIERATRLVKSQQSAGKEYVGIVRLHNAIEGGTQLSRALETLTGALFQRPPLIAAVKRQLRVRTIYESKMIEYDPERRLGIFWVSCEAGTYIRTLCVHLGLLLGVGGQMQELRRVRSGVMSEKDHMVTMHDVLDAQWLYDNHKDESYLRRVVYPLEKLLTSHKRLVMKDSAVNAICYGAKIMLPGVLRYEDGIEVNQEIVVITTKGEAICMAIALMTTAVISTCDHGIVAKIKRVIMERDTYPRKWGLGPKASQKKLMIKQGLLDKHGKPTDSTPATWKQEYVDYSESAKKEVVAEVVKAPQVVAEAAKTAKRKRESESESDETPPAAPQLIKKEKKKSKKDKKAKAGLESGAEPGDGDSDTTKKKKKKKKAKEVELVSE
T1 sequence (Q9NPE3 whole entry partner): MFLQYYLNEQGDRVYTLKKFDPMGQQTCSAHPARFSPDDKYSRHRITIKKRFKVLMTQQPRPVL
T1 sequence (Q9NX24 whole entry partner): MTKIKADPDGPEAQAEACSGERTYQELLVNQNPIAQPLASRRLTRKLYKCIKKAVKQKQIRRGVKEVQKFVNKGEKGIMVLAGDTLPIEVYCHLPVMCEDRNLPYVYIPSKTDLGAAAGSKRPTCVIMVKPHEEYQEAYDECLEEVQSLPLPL
T1 sequence (Q9NY12 whole entry partner): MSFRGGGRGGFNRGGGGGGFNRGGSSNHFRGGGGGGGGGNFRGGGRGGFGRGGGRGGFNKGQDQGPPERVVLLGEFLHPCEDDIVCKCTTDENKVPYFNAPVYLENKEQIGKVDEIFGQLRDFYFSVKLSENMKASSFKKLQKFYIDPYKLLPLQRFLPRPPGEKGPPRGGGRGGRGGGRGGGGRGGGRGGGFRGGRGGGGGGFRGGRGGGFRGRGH
T2 sequence (O14746 whole entry): as the sequence (O14746 whole entry) above
T2 sequence (O60832 whole entry partner): as the sequence (O60832 whole entry partner) above
T2 sequence (Q9NPE3 whole entry partner): as the sequence (Q9NPE3 whole entry partner) above
T2 sequence (Q9NX24 whole entry partner): as the sequence (Q9NX24 whole entry partner) above
T2 sequence (Q9NY12 whole entry partner): as the sequence (Q9NY12 whole entry partner) above

- IC50 [1]: 4 µM
- Residual Enzyme Activity (%) ([2]; concentration 100 μM): 47%
Compound: O=C1NC(=O)C(=Cc2ccc(Oc3ccccc3)cc2)S1 [Compound 14]

- IC50 [1]: 8 µM
- remaining activity at 10 µM [2, 3]: 44%
Compound: O=C1NC(=O)C(=Cc2cc([N+](=O)[O-])ccc2S(=O)(=O)C2CCCCC2)S1 [Compound 86]

- residual activity of in vitro telomerase activity (in parenthesis) [1]: (62%)
- Residual Enzyme Activity (%) ([2]; concentration 30 μM): 36%
Compound: Cc1ccc([S+]([O-])c2ccc(C=C3SC(=O)NC3=O)cc2Br)cc1 (stereo not drawn) [Compound 143]

- IC50 [1]: 5.8 µM
- Residual Enzyme Activity (%) ([2]; concentration 100 μM): 26%
Compound: Cc1ccc(Oc2cccc(C=C3SC(=O)NC3=O)c2)cc1 [Compound 12]

- IC50 [1]: 21 µM
- Residual Enzyme Activity (%) ([2]; concentration 30 μM): 11%
Compound: Cc1ccc(Sc2ccc([N+](=O)[O-])cc2C=C2SC(=O)NC2=O)cc1 [Compound 1]

- IC50 [1]: 9.3 µM
- Residual Enzyme Activity (%) ([2]; concentration 10 μM): 40%
Compound: O=C1NC(=O)C(=Cc2cc([N+](=O)[O-])ccc2[S+]([O-])c2ccncc2)S1 (stereo not drawn) [Compound 120]

- IC50 [1]: 5.5 µM
- remaining activity at 10 µM [2, 3]: 25%
Compound: O=C1NC(=O)C(=Cc2cc([N+](=O)[O-])ccc2S(=O)(=O)Cc2ccccc2)S1 [Compound 78]

- residual activity of in vitro telomerase activity (in parenthesis) [1]: (56%)
- Residual Enzyme Activity (%) ([2]; concentration 30 μM): 2%
Compound: Cc1ccc(Sc2ccc(-c3ccccn3)cc2C=C2SC(=O)NC2=O)cc1 [Compound 89]

- IC50 [1]: 4.5 µM
- remaining activity at 3 µM ([2]; concentration 3 μM, read-out: Residual Enzyme Activity (%)): 14%
Compound: O=C1NC(=O)/C(=C/c2cc([N+](=O)[O-])ccc2[S+]([O-])c2ccc(Cl)c(Cl)c2)S1 (stereo not drawn) [Compound 135]

- IC50 [1]: 9.1 µM
- remaining activity at 10 µM [2, 3]: 11%
Compound: CCc1ccc([S+]([O-])c2ccc([N+](=O)[O-])cc2/C=C2\SC(=O)NC2=O)cc1 (stereo not drawn) [Compound 133]

- IC50 [1]: 7.4 µM
- remaining activity at 30 µM [2, 4]: 50%
Compound: CCN(CC)C(=O)c1cc(C=C2SC(=O)NC2=O)c(Sc2ccc(Cl)cc2)s1 [Compound 54]

- residual activity of in vitro telomerase activity (in parenthesis) [1]: (58%)
- Residual Enzyme Activity (%) ([2]; concentration 10 μM): 32%
Compound: Cc1ccc(S(=O)(=O)c2ccc(C=C3SC(=O)NC3=O)cc2[N+](=O)[O-])cc1 [Compound 83]

- IC50 [1]: 5.6 µM
- remaining activity at 30 µM [2, 4]: 41%
Compound: CC(=O)c1ccc(Sc2ccc(C)cc2)c(C=C2SC(=O)NC2=O)c1 [Compound 97]

- residual activity of in vitro telomerase activity (in parenthesis) [1]: (51%)
- Residual Enzyme Activity (%) ([2]; concentration 3 μM): 23%
Compound: Cc1ccc([S+]([O-])c2ccc(C=C3SC(=O)NC3=O)cc2[N+](=O)[O-])cc1 (stereo not drawn) [Compound 82]

- IC50 [1]: 7.9 µM
- remaining activity at 30 µM [2, 4]: 26%
Compound: CN1CCN(C(=O)c2cc(C=C3SC(=O)NC3=O)c(Sc3ccc(Cl)cc3)s2)CC1 [Compound 56]

- IC50 [1]: 30 µM
- Residual Enzyme Activity (%) ([2]; concentration 10 μM): 16%
Compound: Cc1ccc([S+]([O-])c2ccc([N+](=O)[O-])cc2C=C2SC(=O)NC2=O)cc1 (stereo not drawn) [Compound 4]

- IC50 [1]: 2.7 µM
- remaining activity at 10 µM [2, 3]: 18%
Compound: O=C1NC(=O)/C(=C/c2cc([N+](=O)[O-])ccc2[S+]([O-])c2ccc(Cl)cc2)S1 (stereo not drawn) [Compound 68]

- residual activity of in vitro telomerase activity (in parenthesis) [1]: (64%)
- Residual Enzyme Activity (%) ([2]; concentration 30 μM): 26%
Compound: Cc1ccc([S+]([O-])c2ccc(C=C3SC(=O)NC3=O)cc2Cl)cc1 (stereo not drawn) [Compound 141]

- IC50 [1]: 3.7 µM
- Residual Enzyme Activity (%) ([2]; concentration 30 μM): 0%
Compound: O=C1NC(=O)C(=Cc2cc(C(=O)c3ccc(Cl)cc3)c(S(=O)(=O)c3ccc(Cl)cc3)s2)S1 [Compound 66]

- IC50 [1]: 54 µM
- remaining activity at 30 µM [2, 4]: 24%
Compound: O=C1NC(=O)C(=Cc2cc(C(=O)N3CCOCC3)sc2Sc2ccc(Cl)cc2)S1 [Compound 57]

- IC50 [1]: 23 µM
- Residual Enzyme Activity (%) ([2]; concentration 10 μM): 16%
Compound: Cc1ccc(S(=O)(=O)c2ccc([N+](=O)[O-])cc2C=C2SC(=O)NC2=O)cc1 [Compound 5]

- IC50 [1]: 5.6 µM
- remaining activity at 30 µM [2, 4]: 41%
Compound: Cc1ccc(Sc2ccc(-c3cccs3)cc2C=C2SC(=O)NC2=O)cc1 [Compound 92]

- IC50 [1]: 6 µM
- Residual Enzyme Activity (%) ([2]; concentration 30 μM): 39%
Compound: O=C1NC(=S)SC1=Cc1cc([N+](=O)[O-])ccc1Sc1ccc(Cl)cc1 [Compound 37]

- residual activity of in vitro telomerase activity (in parenthesis) [1]: (68%)
- Residual Enzyme Activity (%) ([2]; concentration 30 μM): 37%
Compound: Cc1ccc([S+]([O-])c2ccc(C(F)(F)F)cc2C=C2SC(=O)NC2=O)cc1 (stereo not drawn) [Compound 113]

- IC50 [1]: 0.48 µM
- remaining activity at 10 µM [2, 3]: 16%
Compound: O=C1NC(=O)C(=Cc2cc([N+](=O)[O-])ccc2S(=O)(=O)c2ccc(Cl)cc2)S1 [Compound 69]

- residual activity of in vitro telomerase activity (in parenthesis) [1]: (59%)
- Residual Enzyme Activity (%) ([2]; concentration 10 μM): 4%
Compound: O=C1NC(=O)C(=Cc2cc([N+](=O)[O-])ccc2[S+]([O-])c2cccc(Cl)c2)S1 (stereo not drawn) [Compound 134]

- IC50 [1]: 26 µM
- Residual Enzyme Activity (%) ([2]; concentration 100 μM): 0%
Compound: O=C1NC(=O)C(=Cc2cc([N+](=O)[O-])ccc2OCc2ccccc2)S1 [Compound 16]
